From the supplement of paper PMC10307832

What was measured:
Assay in all cases: relative viability (nuclei count vs DMSO), 5 days (fraction); higher = more cells survive
GSK-J4 + OSI-027 = compound: CCOC(=O)CCNc1cc(N2CCc3ccccc3CC2)nc(-c2ccccn2)n1 [GSK-J4] + COc1cccc2cc(-c3nc([C@H]4CC[C@H](C(=O)O)CC4)n4ncnc(N)c34)[nH]c12 [OSI-027] (partner 0.5 µM)
In short: (§1)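 Relative viability is defined as nuclei in treated wells over nuclei in vehicle wells. Duplicate plates were run and medians reported. Lung cancer cell lines in 1536-well plates were dosed by pin tool one day after seeding, with one drug or with a fixed anchor-drug dose plus five library-drug doses (not always all listed) in √10 steps, and nuclei were counted after 5 days.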

GSK-J4 + Linsitinib = compound: CCOC(=O)CCNc1cc(N2CCc3ccccc3CC2)nc(-c2ccccn2)n1 [GSK-J4] + C[C@]1(O)C[C@@H](c2nc(-c3ccc4ccc(-c5ccccc5)nc4c3)c3c(N)nccn32)C1 [Linsitinib] (partner 1 µM)
In short: as §1

GSK-J4 + Phenformin = compound: CCOC(=O)CCNc1cc(N2CCc3ccccc3CC2)nc(-c2ccccn2)n1 [GSK-J4] + N=C(N)NC(=N)NCCc1ccccc1 [Phenformin] (partner 250 µM)
In short: as §1

AZ3146 + Luminespib = compound: CN1CCC(CC1)OC2=CC(=C(C=C2)NC3=NC=C4C(=N3)N(C(=O)N4C)C5CCCC5)OC [AZ3146] + CCNC(=O)c1noc(-c2cc(C(C)C)c(O)cc2O)c1-c1ccc(CN2CCOCC2)cc1 [Luminespib] (partner 0.01 µM)
In short: as §1

| Cell Line | relative viability (GSK-J4 + OSI-027; first compound 0.5 µM) | relative viability (GSK-J4 + OSI-027; first compound 1.581 µM) | relative viability (GSK-J4 + OSI-027; first compound 5 µM) | relative viability (GSK-J4 + OSI-027; first compound 15.81 µM) | relative viability (GSK-J4 + OSI-027; first compound 50 µM) | relative viability (GSK-J4 + Linsitinib; first compound 0.5 µM) | relative viability (GSK-J4 + Linsitinib; first compound 1.581 µM) | relative viability (GSK-J4 + Linsitinib; first compound 5 µM) | relative viability (GSK-J4 + Linsitinib; first compound 15.81 µM) | relative viability (GSK-J4 + Linsitinib; first compound 50 µM) | relative viability (GSK-J4 + Phenformin; first compound 0.5 µM) | relative viability (GSK-J4 + Phenformin; first compound 1.581 µM) | relative viability (GSK-J4 + Phenformin; first compound 5 µM) | relative viability (GSK-J4 + Phenformin; first compound 15.81 µM) | relative viability (GSK-J4 + Phenformin; first compound 50 µM) | relative viability (AZ3146 + Luminespib; first compound 0.08 µM) | relative viability (AZ3146 + Luminespib; first compound 0.253 µM) | relative viability (AZ3146 + Luminespib; first compound 0.8 µM) | relative viability (AZ3146 + Luminespib; first compound 2.53 µM) | relative viability (AZ3146 + Luminespib; first compound 8 µM) |
| --- | --- | --- | --- | --- | --- | --- | --- | --- | --- | --- | --- | --- | --- | --- | --- | --- | --- | --- | --- | --- |
| HCC-827 | 0.751 | 0.635 | 0.792 | 0.576 | 0.787 | 0.932 | 0.955 | 0.889 | 0.902 | 0.87 | 0.366 | 0.383 | 0.426 | 0.355 | 0.398 | 0.62 | 0.616 | 0.574 | 0.609 | 0.598 |
| IA-LM |  |  |  |  |  | 0.556 | 0.288 | 0.634 | 0.463 | 0.201 |  |  |  |  |  |  |  |  |  |  |
| NCI-H1623 | 0.438 | 0.456 | 0.48 | 0.406 | 0.435 |  |  |  |  |  | 0.597 | 0.457 | 0.623 | 0.398 | 0.545 | 0.486 | 0.591 | 0.612 | 0.604 | 0.556 |
| NCI-H3122 | 0.88 |  | 1.1 | 0.537 | 0.674 | 0.939 | 1.04 | 1.04 | 0.998 | 0.98 | 0.37 |  | 0.305 | 0.289 | 0.264 | 0.12 | 0.113 | 0.108 | 0.111 | 0.0978 |
| RERF-LC-KJ | 0.582 | 0.475 | 0.485 | 0.473 | 0.382 | 0.93 | 0.818 | 0.852 | 0.856 | 0.777 | 0.424 | 0.441 | 0.401 | 0.417 | 0.341 | 1.15 | 1.2 | 1.22 | 1.29 | 0.668 |
| NCI-H1703 |  |  |  |  |  | 0.636 | 0.276 | 0.336 | 0.364 | 0.761 |  |  |  |  |  |  |  |  |  |  |
| HCC-15 | 0.722 |  | 0.634 | 0.469 | 0.285 | 0.845 | 0.793 | 0.892 | 0.785 | 0.629 | 0.458 |  | 0.376 | 0.384 | 0.344 | 0.262 | 0.393 | 0.531 | 0.785 | 0.552 |
| NCI-H1666 | 0.836 | 0.738 | 1.15 | 0.763 | 0.648 | 0.873 |  | 0.888 | 0.779 | 0.764 | 0.512 | 0.515 | 0.605 | 0.486 | 0.464 | 1.08 | 1.04 | 1 | 1.04 | 0.763 |
| NCI-H1395 | 0.65 | 0.641 | 0.515 | 0.591 | 0.569 | 1.06 | 1.22 | 0.877 | 0.813 | 0.745 | 0.418 | 0.459 | 0.372 | 0.421 | 0.443 | 0.72 | 0.691 | 0.634 | 0.772 | 0.719 |
| SK-LU-1 | 0.339 | 0.318 | 0.258 | 0.292 | 0.218 | 1.08 | 1.18 | 0.716 | 0.911 | 0.777 | 0.48 | 0.495 | 0.323 | 0.365 | 0.245 | 0.216 | 0.206 | 0.231 | 0.252 | 0.231 |
